Key:
blood monocytes = assay: in vitro; settings: 48 h
Description: Purified populations of human blood monocytes were prepared as previously described by differential density centrifugation on Ficoll and Percoll gradients (see Allavena, P., Piemonti, L., Longoni, D., Bernasconi, S., Stoppacciaro, A., Ruco, L., and Mantovani, A. IL-10 prevents the differentiation of monocytes to dendritic cells but promotes their maturation to macrophages. Eur J Immunol, 28: 359-369, 1998). […] Human thymocytes were isolated from resected thymus from pediatric patients undergoing surgery. Thymocytes were obtained by teasing and isolated on Percoll gradient.
Cells were cultured at 10^6 cells/ml in complete medium RPMI (Biochrom, Berlin, FRG)+10% FCS (Hyclone, Logan, Utah). In vitro differentiated macrophages were obtained by culture of monocytes Monocyte-Colony Stimulating Factor (M-CSF) Peprotech (20 ng/ml), for 5 days. In some experiments, macrophages were treated with LPS (100 ng/ml) Sigma Aldrich, IFN gamma (500 IU/ml) or IL-4 (20 ng/ml) (Schering Plough) for 24 h.
Cell viability was analyzed by DNA content in Flow Cytometry
Cells exposed to treatments were fixed with ethanol 70%, washed in PBS and stained with propidium iodide (PI) solution containing 10 ug/ml PI in PBS and 25 μl RNAse 10,000 units, overnight in the dark. PI incorporation was evaluated on at least 20,000 cells/sample using a FACS Calibur instrument (Becton Dickinson, Sunnyvale, Calif., USA), with a bandpass filter at 620 nm. Apoptosis was detected by staining with AnnexinV and PI. FACS analysis was performed using a bandpass filter 530 and 620 nm for green (AnnexinV) and red (PI) fluorescence respectively, in combination with a […] dichroic mirror.
Purified preparations of blood monocytes, lymphocytes and thymocytes were cultured with different concentrations of ecteinascidin 743 for 48 h. Cell viability was assessed by DNA analysis and propidium iodide (PI) staining in Flow cytometry.
A kinetics analysis of the cytotoxic effect of ecteinascidin 743 was performed in the presence of M-CSF. Cells were treated with M-CSF (20 ng/ml) and different concentrations of ecteinascidin 743. Samples were collected at the indicated times and tested for DNA analysis.
Viability was assessed by PI staining and analyzed by Flow Cytometry.

CCL2 [1] = assay: CCL2 production by LPS-stimulated monocytes (ELISA); type: cell-based, human; settings: 24 h-incubation
Description: Supernatants of untreated cells or cells treated with ecteinascidin 743 or other anti-neoplastic agents were collected after 24 h culture and frozen. Monocytes, macrophages and TAM were stimulated with 100 ng/ml LPS to induce maximal cytokine production. Determination of cytokines CCL2, TNF and IL-6 was measured by specific ELISA following the manufacturer's instructions.
Monocytes and in vitro differentiated macrophages were stimulated with LPS (100 ng/ml). After 1 h LPS stimulation they were treated with ecteinascidin 743. After 16 h incubation, cell supernatants were harvested and tested in ELISA. Under these treatment conditions cell viability was usually >85% for concentrations up to 5 nM. […] Mean inhibition at 5 nM, for monocytes, was 65% (range 50-80%, n=5) and was 50% (range 25-75%, n=5) for in vitro differentiated macrophages. Results are mean+/−SE of 3-5 experiments
Similar results were obtained when monocytes were stimulated with LPS (100 ng/ ml) and treated with ET743 and the other ecteinascidin compounds, although the overall inhibition was less marked compared with the previous experiment where the tumor supernantant was used as CCL2-inducing stimulus.
CCL2 and TNF production by LPS-stimulated monocytes treated with the indicated doses of the anti-tumor agents was also tested. Cell supernatants were harvested after 24 h-incubation and tested in ELISA. […] None of these compounds interfered with the production of TNF.
A major finding of our work is the inhibitory activity of ecteinascidin 743 on the production of inflammatory cytokines. Among various inflammatory cytokines produced by monocyte/macrophages we have tested IL-6, TNF and the chemokine CCL2. CCL2 is a chemokine attracting monocytes and other leukocyte subsets, and is produced both by monocyte/macrophages and several tumour cells. It has been described that ovarian adenocarcinoma cells produce huge amounts of CCL2 and that their levels correlate with the macrophage content of tumours. CCL2 is therefore one of the most important factors regulating monocyte/macrophages recruitment at the tumour site. […] Thus, lower levels of CCL2 by TAM and tumour cells are likely to reduce the number of macrophages recruited at the tumour site. In the above described in vitro experiments ecteinascidin 743 was present throughout the 16-h culture period. We also checked whether a shorter in vitro exposure to ecteinascidin 743 was sufficient to affect cytokine production. Monocytes exposed to ecteinascidin 743 were washed after 1 hour culture and replaced in fresh medium.

CCL2 [2] = assay: CCL2 production induced by exposure of monocytes to tumor cell supernatants; type: cell-based, human
Description: We also tested five other ecteinascidin compounds (Table 2) for their capacity to inhibit the production of CCL2 by human monocytes in vitro. […] The extent of inhibition of ET637 Derivative A was even more pronouced compared to ET743. In Table 2 is shown that the production of CCL2, induced by exposure of monocytes to tumor cell supernatants, is inhibited up to 80% and 97% at 2.5 and 5 nM, respectively, in two different donors. In the same experiment ET743 inhibited between 30% and 70%.

## N.N.[Cl][Pt][Cl] [Cisplatin, reference compound]
Blood monocytes; very high concentrations (40 μM)
  toxicity on monocytes: Significant toxicity
CCL2 [1]; 10 μM
  effect on CCL2 production by LPS-stimulated monocytes: reduced CCL2 production

## COc1cccc2c1C(=O)c1c(O)c3c(c(O)c1C2=O)C[C@@](O)(C(=O)CO)C[C@@H]3O[C@H]1C[C@H](N)[C@H](O)[C@H](C)O1 [Doxorubicin, reference compound]
CCL2 [1]; indicated doses (FIG. 9B)
  effect on CCL2 production by LPS-stimulated monocytes: ineffective

## COc1c(C)cc2c(c1O)C1C3[C@@H]4SCC(=O)C(=O)OC[C@@H](c5c6c(c(C)c(OC(C)=O)c54)OCO6)N3[C@@H](O)[C@H](C2)N1C (some centres unmarked) [ET594]
CCL2 [2]; 5 nM
  % inhibition of CCL2 production, Donor A: 25%
CCL2 [2]; 10 nM
  % inhibition of CCL2 production, Donor A: 25%

## COc1cc2c(cc1O)CCN[C@]21CS[C@@H]2c3c(OC(C)=O)c(C)c4c(c3[C@H](COC1=O)N1C[C@@H]3Cc5cc(C)c(OC)c(O)c5[C@H]([C@H]21)N3C)OCO4 [ET745]
CCL2 [2]; Homo sapiens, Monocyte, read-out: % inhibition of CCL2 production, Donor A
  inhibition at 0.005 µM: 23%

## CC(=O)O[C@H]1C(=O)[C@@]2(C)[C@H]([C@H](OC(=O)c3ccccc3)[C@]3(O)C[C@H](OC(=O)[C@H](O)[C@@H](NC(=O)c4ccccc4)c4ccccc4)C(C)=C1C3(C)C)[C@]1(OC(C)=O)CO[C@@H]1C[C@@H]2O [Taxol, reference compound]
Blood monocytes; 300 nM
  toxicity on monocytes: ineffective
CCL2 [1]; indicated doses (FIG. 9B)
  effect on CCL2 production by LPS-stimulated monocytes: ineffective

Reference: US20080076772A1, “Anti-Inflammatory Agents” (Pharma Mar S.A. Sociedad Unipersonal, priority 2004, published 2008)
